According to patent US20120095028A1, “3-OXA-7-AZABICYCLO[3.3.1]NONANES” (Pfizer Inc., priority 2009, published 2012):
Several values for one entry are separate records, joined by “and”; a condition that tells them apart may be missing. Identical values can stand only once.

Target: T1, human GPR119 (Homo sapiens, UniProt Q8TDV5)
T1 construct: host or cells: HEK293-CRE-β-lactamase cells expressing hGPR119
T1 sequence (Q8TDV5 1-335): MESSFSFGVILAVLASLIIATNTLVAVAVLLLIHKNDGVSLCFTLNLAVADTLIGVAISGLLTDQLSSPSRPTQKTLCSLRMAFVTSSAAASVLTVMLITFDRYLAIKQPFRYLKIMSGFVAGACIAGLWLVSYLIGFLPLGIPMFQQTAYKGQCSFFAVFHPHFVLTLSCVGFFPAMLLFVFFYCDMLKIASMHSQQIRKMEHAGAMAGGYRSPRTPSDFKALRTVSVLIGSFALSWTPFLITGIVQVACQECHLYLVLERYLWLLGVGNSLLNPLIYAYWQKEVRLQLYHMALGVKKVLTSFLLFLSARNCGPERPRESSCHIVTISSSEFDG
Assay: GPR119 agonist cell-based hGPR119 HEK293-CRE β-lactamase reporter assay
Settings: one value per run; for EC50: hGPR119-HEK-CRE-β-lactamase cells, 16 hours incubation; for Emax: read-out: Intrinsic Activity*
Method: The assay for GPR119 agonists utilizes a cell-based (hGPR119 HEK293-CRE β-lactamase) reporter construct where agonist activation of human GPR119 is coupled to β-lactamase production via a cyclic AMP response element (CRE). GPR119 activity is then measured utilizing a FRET-enabled R-lactamase substrate, CCF4-AM (Live Blazer FRET-B/G Loading kit, Invitrogen cat #K1027). Specifically, hGPR119-HEK-CRE-β-lactamase cells (Invitrogen 2.5×10^7/mL) were removed from liquid nitrogen storage, and diluted in plating medium (Dulbecco's modified Eagle medium high glucose (DMEM; Gibco Cat #11995-065), 10% heat inactivated fetal bovine serum (HIFBS; Sigma Cat #F4135), 1× MEM Nonessential amino acids (Gibco Cat #15630-080), 25 mM HEPES pH 7.0 (Gibco Cat #15630-080), 200 nM potassium clavulanate (Sigma Cat #P3494). The cell concentration was adjusted using cell plating medium and 50 μL of this cell suspension (12.5×10^4 viablecells) was added into each well of a black, clear bottom, poly-d-lysine coated 384-well plate (Greiner Bio-One cat #781946) and incubated at 37° C. in a humidified environment containing 5% carbon dioxide. After 4 hours the plating medium was removed and replaced with 40 μL of assay medium (Assay medium is plating medium without potassium clavulanate and HIFBS). Varying concentrations of each compound to be tested was then added in a volume of 10 uL (final DMSO≦0.5%) and the cells were incubated for 16 hours at 37° C. in a humidified environment containing 5% carbon dioxide. Plates were removed from the incubator and allowed to equilibrate to room temperature for approximately 15 minutes. 10 uL of 6× CCF4/AM working dye solution (prepared according to instructions in the Live Blazer FRET-B/G Loading kit, Invitrogen cat #K1027) was added per well and incubated at room temperature for 2 hours in the dark. Fluorescence was measured on an EnVision fluorimetric plate reader, excitation 405 nm, emission 460 nm/535 nm. EC50 determinations were made from agonist-response curves analyzed with a curve fitting program using a 4-parameter logistic dose-response equation.

[1] = percent of maximal activity relative to standard GPR119 agonist at a final concentration of 10 μM

| EC50 | Intrinsic Activity* [1] | Emax [1] [%] | Structure (SMILES) |
| --- | --- | --- | --- |
| 10.5 nM and 12.8 nM and 23.3 nM | 88% and 87% | 90 | CC(C)OC(=O)N1C[C@H]2COC[C@@H](C1)[C@@H]2Oc1ncnc2c1CCN2c1ccc(S(C)(=O)=O)cc1F [Example 1, Isopropyl 9-syn-({7-[2-fluoro-4-(methylsulfonyl)phenyl]-6,7-dihydro-5H-pyrrolo[2,3-d]pyrimidin-4-yl}oxy)-3-oxa-7-azabicyclo[3.3.1]nonane-7-carboxylate] |
| 23.8 nM |  | 93 | CC(C)OC(=O)N1C[C@H]2COC[C@@H](C1)[C@H]2Oc1ncnc2c1CCN2c1ccc(S(C)(=O)=O)cc1F [Example 2, Isopropyl 9-anti-({7-[2-fluoro-4-(methylsulfonyl)phenyl]-6,7-dihydro-5H-pyrrolo[2,3-d]pyrimidin-4-yl}oxy)-3-oxa-7-azabicyclo[3.3.1]nonane-7-carboxylate] |
